How the values were obtained:
[1] = Propylene- and methane-oxidizing activities in cell fractions P(40), P(80), S(80) of methylotrophs; format: biochemical; settings: in place of NADH
Experimental: The oxidation of methane and propylene by particulate [(P)40 and(P)80] fractions and soluble [S(80)] fraction was measured at 30° C. by estimating the production of methanol and propylene oxide, respectively.
Reaction mixtures were contained in 10 ml vials at 4° C. Vials were sealed with rubber caps. The gaseous phase in the vials was removed using vacuum and then was replaced with a gas mixture of methane or propylene and oxygen at a 1:1, v/v ratio. Oxidation of other gaseous n-alkanes and n-alkenes was examined as described above. For liquid substrates, 10 μl of substrate was used directly. Vials were then incubated at 30° C. on a rotary shaker at 200 RPM.
The column temperature was maintained isothermally at 120° C. The carrier gas flow rate was 30 ml/min. of helium.

[2] = tested on: cell-free particulate fractions derived from the methylotrophic microorganisms; assay: Conversion of C3-C6 n-alkanes to sec. alcohols by cell-free particulate fractions: inhibitors and electron donors; format: biochemical
From the text: The conditions for preparing the cell suspensions or the cell-free particulate fractions from methane-grown methylotroph microorganisms is the same as described above. […] Tables XXV and XXVI show the conversion of C3 -C6 n-alkanes to the corresponding secondary alcohols using cell suspensions and cell-free particulate fractions, respectively, of methane-grown methylotroph microorganisms.

[3] = tested on: P(40) particulate fraction of Methylosinus sp. (CRL-15, NRRL B-11,202); assay: Stoichiometry of propylene epoxidation and methane hydroxylation by P(40) fraction; format: biochemical; settings: 5.0 μmoles substrate
Experimental: The particulate P(40) fraction of Methylosinus sp. (CRL-15, NRRL B-11,202) was used to determine the stoichiometry of hydroxylation and epoxidation reactions. The stoichiometry of methane or propylene-dependant NADH oxidation, oxygen consumption and product formation was approximately 1:1:1 Table XIV. This is consistent with methane or propylene oxygenation being catalyzed by a mono-oxygenase.
^a Under identical condition of reaction, the estimation of NADH
oxidized was carried out spectrophotometrically, the estimation of oxygen
consumed was measured polarographically, and estimation of product formed
was carried out by gas chromatography.

[4] = tested on: Methylosinus trichosporium OB3b (NRRL B-11,196); assay: Stoichiometry of the epoxidation of propylene by a cell-suspension; format: cell-based; settings: 3 min., 3.1 mg. protein, 3.6 μmoles propylene
Experimental: As a comparison the stoichiometry of the epoxidation of propylene by a cell-suspension of Methylosinus trichosporium OB3b (NRRL B-11,196) was determined as follows. The reaction mixture (3.0 ml.) contained 0.05 M sodium phosphate buffer, pH 7.0 and 3.6 μmoles of propylene. The reaction was initiated by the injection of 0.1 ml. of cell-suspension (3.1 mg. protein). A correction was made for the endogenous consumption of oxygen. The amount of oxygen consumed during the reaction (3 min.) was determined polarographically with a Clark oxygen electrode. The propylene consumed and the propylene oxide formed was estimated by gas chromatography. The propylene consumed was 0.29 μmoles, the oxygen consumed was 0.30 μmoles and the propylene oxide formed was 0.28 μmoles.

[5] = tested on: P(40) particulate fraction of Methylosinus sp. (CRL-15, NRRL B-11,202); assay: Oxidation of n-alkenes and n-alkanes by P(40) particulate fraction; format: biochemical; settings: for Rate of Product Formation: substrate oxidized to its epoxide or alcohol, 30° C.
[6] = Oxidation of methane and lower alkenes by washed cell suspensions of methane-grown methylotrophic strains; format: cell-based; settings: methane-grown methylotrophic microorganisms
Experimental: The isolates had been maintained on agar plates under an atmosphere of methane and air having a 1:1 v/v gas ratio which had been transferred every two weeks. The gaseous phase of the inoculated flasks was then replaced with a gas mixture comprised of methane and air having a ratio of 1:1 on a v/v basis.
The cells were harvested by centrifugation at 10,000×g. at 4° C. for 30 minutes. The cell pellet was washed twice with a 0.15 M phosphate buffer at a pH of 7.0 (containing 0.002 M MgCl2). The washed cells were then suspended in a 0.15 M phosphate buffer at pH 7.0.
A 0.5 ml sample of each washed cell suspension (2 mg cells) was put into 10 ml vials at 4° C. which were sealed with a rubber cap. The gaseous phase of the vials was removed with vacuum and then was replaced with a gas mixture of the oxidative substrate (e.g., methane) and oxygen at a 1:1 v/v ratio. The vials were then incubated at 30° C. on a rotary shaker at 300 rpm. Samples of product (3 μl) were withdrawn periodically with a microsyringe and the products were analyzed by gas chromatography (ionization flame detector column).
The newly discovered and isolated microorganism strains of the present invention were each grown aerobically in the presence of methane in the manner described above. […]

With NC(=O)C1=CN([C@@H]2O[C@H](COP(=O)(O)OP(=O)(O)OC[C@H]3O[C@@H](n4cnc5c(N)ncnc54)[C@H](OP(=O)(O)O)[C@@H]3O)[C@@H](O)[C@H]2O)C=CC1 [NADPH, reduced nicotinamide adenine dinucleotide phosphate] as the molecule, how does the “electron carrier for epoxidation of propylene and hydroxylation of methane” value [1] read?
Its value is “could also be utilized”.

And the “electron donor in place of NADH for hydroxylation of n-alkanes” value [2]?
Its value is “could also be utilized”.

Which results are given for C=CC [Propylene]?
NADH Oxidized [3]: 5.0 µmol; O2 Consumed [3]: 4.8 µmol; Product formed [3]: 4.5 µmol; oxygen consumed [4]: 0.30 µmol; propylene consumed [4]: 0.29 µmol; propylene oxide formed [4]: 0.28 µmol; inhibition of the conversion of the n-alkanes to the sec. alcohols [2]: inhibit; Propylene Oxide Produced ([5]; substrate competition, gas phase as labelled): 4.3 μmoles/hr/mg. protein; Rate of Product Formation [5]: 4.1 μ moles/hr/mg of protein

With C=CCCCC [hexene-1] as the molecule, how does the “epoxide product from the substrate” value [6] read?
The value was “did not produce any detectable epoxide product”.

Which “epoxide product from the substrate” value [6] does the source give for C=CCCC [1-Pentene] here?
The value was “did not produce any detectable epoxide product”.

And the “Rate of Product Formation” value [5]?
The value was 0 μ moles/hr/mg of protein.

From US4241184A, “Secondary alcohol dehydrogenase enzyme and use thereof” (priority 1979, dated 1980)
